# Experimental data as given in patent US7459557B2, “Substituted isoindole-1,3-diones” (Janssen Pharmaceutica N.V., priority 2005, dated 2008).
# Values joined by “and” are separate entries in the source; they are usually repeats but may differ in a detail not shown here. Identical values can stand only once.
# Legend:
# α1a-AR = target: T1, α1a-AR (Homo sapiens, UniProt P35348); assay: α1-adrenergic receptor radio-ligand (125I-HEAT) binding assay, α1a subtype; conditions: COS-7 cell membranes transfected with α1a subtype, 125I-HEAT 50 pM
# T1 construct: expressed in transfected cells; host or cells: COS-7 (African Green monkey kidney) cell membranes
# T1 sequence (P35348 1-455 isoform P35348-4): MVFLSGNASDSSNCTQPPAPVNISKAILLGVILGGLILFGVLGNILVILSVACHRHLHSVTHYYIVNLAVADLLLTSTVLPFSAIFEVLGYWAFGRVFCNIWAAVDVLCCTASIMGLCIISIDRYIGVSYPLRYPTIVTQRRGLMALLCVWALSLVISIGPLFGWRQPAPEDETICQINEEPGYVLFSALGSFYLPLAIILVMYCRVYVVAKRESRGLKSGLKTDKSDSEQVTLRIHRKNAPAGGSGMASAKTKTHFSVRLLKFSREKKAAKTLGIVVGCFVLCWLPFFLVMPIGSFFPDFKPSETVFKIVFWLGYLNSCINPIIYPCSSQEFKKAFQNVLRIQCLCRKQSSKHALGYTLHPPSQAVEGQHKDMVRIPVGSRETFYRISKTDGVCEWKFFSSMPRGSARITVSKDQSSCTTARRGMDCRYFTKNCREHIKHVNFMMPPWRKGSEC
# Description: (§1) α1-Adrenergic Receptor Binding Assay
# (§2) Preparation of COS Cell Membranes
# (§3) Membranes were prepared from COS-7 cells (African Green monkey kidney SV40-transformed cells) that had been transfected with one of the three α1-AR subtypes (Genbank accession number for the α1a subtype: AF013261; Genbank accession number for the α1b subtype: NM000679; Genbank accession number for the α1d subtype: NM000678) using the following method: COS cells from ten 100 mm tissue culture plates were scraped into a 5 mL volume of TE (a mixture of 50 mM Tris-HCl, 5 mM EDTA, pH 7.4). The cell suspension was disrupted with a Brinkman Polytron (at a setting of 8) for 10 sec. The disrupted cells were centrifuged at 1000×g for 10 min at 4° C. Supernatants were centrifuged at 34,500×g for 20 min at 4° C. The membrane pellets were suspended in a 2 mL volume of TNE (a mixture of 50 mM Tris-HCl, 5 mM EDTA and 150 mM NaCl at pH 7.4). An aliquot of the membrane suspension was stored at −70° C. until use. The protein concentration was determined using the BioRad “DC” protein assay kit following membrane solubilization with Triton X-100.
# (§4) Radio-Ligand Binding Assay
# (§5) Triplicate determinations of radio-ligand binding in the presence of increasing concentrations of testing compound were made. The reagents were added to 96-well polypropylene plate wells. […] The plate was incubated at rt for 1 hr. The contents of the wells were filtered through a glass filter (type C) (GF/C) membrane Unifilter plate (Packard Instruments) using the Packard Filtermate cell harvester. The filter plates were dried in a vacuum oven for 30 min at 40° C. 25 μL Microscint 20 liquid scintillation fluid (Packard Instuments) was added to each well. The radioactive content was analyzed in the TopCount microplate scintillation counter (Packard Instruments).
# α1b-AR = target: T2, α1b-AR (Homo sapiens, UniProt P35368); assay: α1-adrenergic receptor radio-ligand (125I-HEAT) binding assay, α1b subtype; conditions: COS-7 cell membranes transfected with α1b subtype, 125I-HEAT 50 pM
# T2 construct: expressed in transfected cells; host or cells: COS-7 (African Green monkey kidney) cell membranes
# T2 sequence (P35368 1-520): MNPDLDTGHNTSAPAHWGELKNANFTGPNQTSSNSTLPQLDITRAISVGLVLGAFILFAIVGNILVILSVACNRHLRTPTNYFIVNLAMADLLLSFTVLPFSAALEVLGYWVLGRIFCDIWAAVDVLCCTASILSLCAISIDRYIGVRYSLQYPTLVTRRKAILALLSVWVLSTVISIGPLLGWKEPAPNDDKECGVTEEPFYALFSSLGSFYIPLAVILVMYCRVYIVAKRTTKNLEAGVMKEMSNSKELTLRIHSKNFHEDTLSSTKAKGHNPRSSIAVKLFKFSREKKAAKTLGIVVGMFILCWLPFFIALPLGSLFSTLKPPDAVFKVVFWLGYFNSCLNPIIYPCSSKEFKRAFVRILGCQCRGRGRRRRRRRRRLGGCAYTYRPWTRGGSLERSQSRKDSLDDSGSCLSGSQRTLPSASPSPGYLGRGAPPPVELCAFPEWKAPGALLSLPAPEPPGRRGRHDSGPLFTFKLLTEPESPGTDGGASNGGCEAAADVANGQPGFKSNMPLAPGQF
# Description: as §1, §2, §3, §4
# Triplicate determinations of radio-ligand binding in the presence of increasing concentrations of testing compound were made. The reagents were added to 96-well polypropylene plate wells. Each assay well contained 140 μL TNE, 25 μL ^125I-2-(β-4-hydroxyphenyl)ethylaminomethyltetralone (^125I-HEAT) (specific activity 2200 Ci/mmol, Dupont-New England Nuclear, 50 pM final), 10 μL testing compound dissolved in dimethyl sulfoxide (DMSO) (1 pM to 10 μM in half-log increments, final), and 25 μL appropriate α1-AR membrane subtype suspension in TNE (0.5 ng/μL for the α1a and α1b subtypes and 13 ng/μL for the α1d subtype). The plate was incubated at rt for 1 hr. The contents of the wells were filtered through a glass filter (type C) (GF/C) membrane Unifilter plate (Packard Instruments) using the Packard Filtermate cell harvester. The filter plates were dried in a vacuum oven for 30 min at 40° C. 25 μL Microscint 20 liquid scintillation fluid (Packard Instuments) was added to each well. The radioactive content was analyzed in the TopCount microplate scintillation counter (Packard Instruments).
# The Ki values (in nM) shown in Table 1 were determined using GraphPad Prism software.
# α1d-AR = target: T3, α1d-AR (Homo sapiens, UniProt P25100); assay: α1-adrenergic receptor radio-ligand (125I-HEAT) binding assay, α1d subtype; conditions: COS-7 cell membranes transfected with α1d subtype, 125I-HEAT 50 pM
# T3 construct: expressed in transfected cells; host or cells: COS-7 (African Green monkey kidney) cell membranes
# T3 sequence (P25100 1-572): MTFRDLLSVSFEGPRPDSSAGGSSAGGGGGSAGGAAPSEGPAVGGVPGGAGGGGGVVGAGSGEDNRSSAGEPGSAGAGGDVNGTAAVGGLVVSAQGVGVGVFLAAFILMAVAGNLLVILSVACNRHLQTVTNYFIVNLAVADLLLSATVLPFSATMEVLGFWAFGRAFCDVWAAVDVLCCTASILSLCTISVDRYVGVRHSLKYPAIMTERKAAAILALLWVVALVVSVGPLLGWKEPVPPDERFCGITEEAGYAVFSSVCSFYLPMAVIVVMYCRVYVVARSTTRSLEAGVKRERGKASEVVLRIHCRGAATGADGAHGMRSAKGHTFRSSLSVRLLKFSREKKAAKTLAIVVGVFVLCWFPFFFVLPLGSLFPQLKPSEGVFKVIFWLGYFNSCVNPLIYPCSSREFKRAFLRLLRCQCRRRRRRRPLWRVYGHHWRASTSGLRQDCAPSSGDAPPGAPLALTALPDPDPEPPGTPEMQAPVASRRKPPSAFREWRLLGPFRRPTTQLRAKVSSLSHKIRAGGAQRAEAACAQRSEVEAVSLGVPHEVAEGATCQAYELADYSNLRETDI
# Description: as §1, §2, §3, §4, §5
# [1] = tested on: α1a and α1d subtypes over the α1b subtype; conditions: cited from earlier work
Structure (SMILES),Ki (α1a-AR),Ki (α1b-AR),Ki (α1d-AR),selectivity for the α1a and α1d subtypes over the α1b subtype [1]
"CC(C)Oc1ccccc1N1CCN(C2CCC(N3C(=O)c4c(F)c(F)c(F)c(F)c4C3=O)CC2)CC1 (mixture of isomers) [Cpd 1, 4,5,6,7-tetrafluoro-2-{4-[4-(2-isopropoxy-phenyl)-piperazin-1-yl]-cyclohexyl}-isoindole-1,3-dione]",37.8 nM,4110 nM,30.2 nM,
"CC(C)Oc1ccccc1N1CCN(C2CCC(N3C(=O)c4cc(Cl)c(Cl)cc4C3=O)CC2)CC1 (mixture of isomers) [Cpd 2, 5,6-dichloro-2-{4-[4-(2-isopropoxy-phenyl)-piperazin-1-yl]-cyclohexyl}-isoindole-1,3-dione]",2.69 nM,1080 nM,0.31 nM,
"CC(C)Oc1ccccc1N1CCN([C@H]2CC[C@H](N3C(=O)c4cccc(F)c4C3=O)CC2)CC1 [Cpd 3, 4-fluoro-r-2-{t-4-[4-(2-isopropoxy-phenyl)-piperazin-1-yl]-cyclohexyl}-isoindole-1,3-dione]",0.2 nM,17.9 nM,0.09 nM,
"CC(C)Oc1ccccc1N1CCN([C@H]2CC[C@@H](N3C(=O)c4cccc(F)c4C3=O)CC2)CC1 [Cpd 4, 4-fluoro-r-2-{c-4-[4-(2-isopropoxy-phenyl)-piperazin-1-yl]-cyclohexyl}-isoindole-1,3-dione]",0.873 nM and 1.1 nM and 0.95 nM,164 nM and 129 nM and 88 nM,3.24 nM and 13.5 nM and 28 nM,
CCOc1ccccc1OCCN[C@H](C)Cc1ccc(OC)c(S(N)(=O)=O)c1 [Tamsulosin],,,,about 15 fold

# Further lines, with some results ahead:
Ki (α1a-AR),Ki (α1b-AR),Ki (α1d-AR),Structure (SMILES),selectivity for the α1a and α1d subtypes over the α1b subtype [1]
0.75 nM,44.6 nM,1.45 nM,"CC(C)Oc1ccccc1N1CCN(C2CCC(N3C(=O)c4cccnc4C3=O)CC2)CC1 (mixture of isomers) [Cpd 5, 6-{4-[4-(2-isopropoxy-phenyl)-piperazin-1-yl]-cyclohexyl}-pyrrolo[3,4-b]pyridine-5,7-dione]",
0.43 nM,22.4 nM,0.77 nM,"CC(C)Oc1ccccc1N1CCN(C2CCC(N3C(=O)c4ccncc4C3=O)CC2)CC1 (mixture of isomers) [Cpd 6, 2-{4-[4-(2-isopropoxy-phenyl)-piperazin-1-yl]-cyclohexyl}-pyrrolo[3,4-c]pyridine-1,3-dione]",
0.58 nM and 3 nM,16 nM and 14 nM,0.27 nM and 0.13 nM,"CC(C)Oc1ccccc1N1CCN(C2CCC(N3C(=O)c4ccc5ccccc5c4C3=O)CC2)CC1 (mixture of isomers) [Cpd 7, 2-{4-[4-(2-isopropoxy-phenyl)-piperazin-1-yl]-cyclohexyl}-benzo[e]isoindole-1,3-dione]",
15 nM,269 nM,16.4 nM,"CC(C)Oc1ccccc1N1CCN([C@H]2CC[C@@H](N3C(=O)c4ccc5ccc(F)cc5c4C3=O)CC2)CC1 [Cpd 8, 8-fluoro-r-2-{c-4-[4-(2-isopropoxy-phenyl)-piperazin-1-yl]-cyclohexyl}-benzo[e]isoindole-1,3-dione]",
1.9 nM and 5.9 nM,35 nM and 58 nM,0.61 nM and 0.3 nM,"CC(C)Oc1ccccc1N1CCN([C@H]2CC[C@H](N3C(=O)c4ccc5ccc(F)cc5c4C3=O)CC2)CC1 [Cpd 9, 8-fluoro-r-2-{t-4-[4-(2-isopropoxy-phenyl)-piperazin-1-yl]-cyclohexyl}-benzo[e]isoindole-1,3-dione]",
